The CheMixHub viscosity set

Assay: xn = mol fraction of the nth substance listed

Cc1ccccc1N + NCCO
viscosity [mPa·s], 100 kPa
Conditions	x1 = 0.0997	x1 = 0.1749	x1 = 0.2629	x1 = 0.3629	x1 = 0.4797	x1 = 0.5707	x1 = 0.6849	x1 = 0.7826	x1 = 0.8935
303.15 K	13.32	12.49	11.51	10.39	9.093	8.076	6.799	5.704	4.459
308.15 K	11.11	10.42	9.62	8.704	7.633	6.796	5.745	4.842	3.815
313.15 K	9.063	8.521	7.884	7.159	6.309	5.646	4.812	4.095	3.278
318.15 K	7.032	6.632	6.161	5.624	4.994	4.503	3.884	3.352	2.744

O=S1(=O)CCCC1 + NCCO
viscosity [mPa·s], 101 kPa
Conditions	x2 = 0.1	x2 = 0.3369	x2 = 0.5426	x2 = 0.7423	x2 = 0.8999
303.15 K	14.02	11.47	9.923	9.547	9.78
323.15 K	7.103	6.2	5.815	5.85	6.195

CC(O)CC(C)(C)O (stereo unspecified) + Nc1ccccc1
viscosity [mPa·s], 101 kPa
Conditions	x1 = 0.0963	x1 = 0.1952	x1 = 0.2931	x1 = 0.3958	x1 = 0.4941	x1 = 0.5915	x1 = 0.6855	x1 = 0.8047	x1 = 0.8966
308.15 K	3.187	3.549	4.028	4.615	5.519	6.694	8.195	10.82	14.34
318.15 K	2.348	2.62	3.031	3.543	4.32	5.405	6.826	9.45	12.55

Cc1ccc(O)cc1 + Nc1ccccc1
viscosity [mPa·s], 101.33 kPa
Conditions	x1 = 0.2696	x1 = 0.4987	x1 = 0.5914	x1 = 0.7696	x1 = 0.8857
298.15 K	6.95	10.7	12.4	14.4	14.5
323.15 K	2.93	3.97	4.26	4.62	4.71

O=S1(=O)CCCC1 + Nc1ccccc1
viscosity [mPa·s], 101 kPa
Conditions	x2 = 0.1	x2 = 0.1955	x2 = 0.3007	x2 = 0.3902	x2 = 0.4997	x2 = 0.6003	x2 = 0.7027	x2 = 0.7982	x2 = 0.8995
303.15 K	9.14	8.22	7.31	6.62	5.86	5.24	4.66	4.17	3.69
308.15 K	8.01	7.2	6.39	5.78	5.1	4.55	4.03	3.59	3.17
313.15 K	7.05	6.33	5.61	5.06	4.46	3.97	3.51	3.12	2.75

C1CC[NH2+]C1.CCCCCCCC(=O)[O-] + O
viscosity [mPa·s], 101 kPa
Conditions	x1 = 0.1001	x1 = 0.1939	x1 = 0.3059	x1 = 0.3999	x1 = 0.5006	x1 = 0.56	x1 = 0.7293	x1 = 0.8443
293.15 K	19.1	30.6	44.2	53	58.7	61.3	67.6	70.6
298.15 K	17	28.7	38.7	45.6	50.2	51.77	57.23	60.69
303.15 K	15.36	22.52	32.46	37.47	40.91	42.49	46.05	48.99
308.15 K	13.5	19.87	28.64	32.64	35.5	36.88	39.52	42.04
313.15 K	11.56	17.09	24.55	27.65	29.82	30.62	32.72	34.71

C=CCC[n+]1ccn(CCCC)c1.[Br-] + O
viscosity [mPa·s], 101.33 kPa
Conditions	x1 = 0.0008989	x1 = 0.00189	x1 = 0.003585	x1 = 0.005487	x1 = 0.007167	x1 = 0.008848
293.15 K	1.032	1.064	1.12	1.182	1.24	1.289
298.15 K	0.915	0.943	0.988	1.046	1.094	1.137
303.15 K	0.818	0.844	0.883	0.931	0.975	1.011
308.15 K	0.736	0.758	0.795	0.837	0.874	0.902
313.15 K	0.667	0.687	0.719	0.757	0.789	0.815

C=O + O
viscosity [mPa·s], 101 kPa
Conditions	x1 = 0.03	x1 = 0.062	x1 = 0.13	x1 = 0.2	x1 = 0.29	x1 = 0.37
293.15 K	1.13	1.26	1.54	1.95	–	–
303.15 K	0.91	1.01	1.25	1.54	–	–
313.15 K	0.74	0.82	1.01	1.24	–	–
323.15 K	0.61	0.68	0.83	1.01	1.61	2.11

CCC(C)O (stereo unspecified) + O
Conditions	viscosity [mPa·s]
293.15 K, 100 kPa, x1 = 0.58	3.807
296 K, 101 kPa, x2 = 0.1	3.008
296 K, 101 kPa, x2 = 0.68	3.67
297 K, 101 kPa, x2 = 0.3	2.923
297 K, 101 kPa, x2 = 0.4	3.074
297 K, 101 kPa, x2 = 0.5	3.242
297 K, 101 kPa, x2 = 0.6	3.416
303 K, 101 kPa, x1 = 0.01	0.9465
303 K, 101 kPa, x2 = 0.1	2.363
303 K, 101 kPa, x2 = 0.3	2.38
303 K, 101 kPa, x2 = 0.4	2.495
303 K, 101 kPa, x2 = 0.5	2.625
303 K, 101 kPa, x2 = 0.6	2.759
303 K, 101 kPa, x2 = 0.68	2.853
303 K, 101 kPa, x2 = 0.98	1.103
304 K, 101 kPa, x2 = 0.97	1.229
305 K, 101 kPa, x2 = 0.2	2.185
313 K, 101 kPa, x1 = 0.01	0.7564
313 K, 101 kPa, x2 = 0.1	1.715
313 K, 101 kPa, x2 = 0.2	1.702
313 K, 101 kPa, x2 = 0.3	1.739
313 K, 101 kPa, x2 = 0.4	1.815
313 K, 101 kPa, x2 = 0.5	1.903
313 K, 101 kPa, x2 = 0.6	1.993
313 K, 101 kPa, x2 = 0.68	2.06
313 K, 101 kPa, x2 = 0.97	0.97
313 K, 101 kPa, x2 = 0.98	0.8638
323 K, 101 kPa, x1 = 0.01	0.622
323 K, 101 kPa, x2 = 0.1	1.28
323 K, 101 kPa, x2 = 0.2	1.28
323 K, 101 kPa, x2 = 0.3	1.312
323 K, 101 kPa, x2 = 0.4	1.364
323 K, 101 kPa, x2 = 0.5	1.427
323 K, 101 kPa, x2 = 0.6	1.492
323 K, 101 kPa, x2 = 0.68	1.541
323 K, 101 kPa, x2 = 0.97	0.773
323 K, 101 kPa, x2 = 0.98	0.6986
323.15 K, 100 kPa, x1 = 0.02	1.324
323.15 K, 100 kPa, x1 = 0.58	1.517

CCCCOCCOCCO + O
viscosity [mPa·s], 101 kPa
Conditions	293.15 K	303.15 K	313.15 K	323.15 K
x1 = 0.01221	1.52	1.15	0.908	0.738
x1 = 0.02709	2.26	1.64	1.27	1.02
x1 = 0.04539	3.18	2.31	1.76	1.38
x1 = 0.0689	4.35	3.1	2.32	1.79
x1 = 0.09981	5.57	3.93	2.88	2.19
x1 = 0.1428	6.78	4.74	3.44	–
x1 = 0.2062	7.94	–	3.88	2.87
x1 = 0.3078	8.42	5.78	–	3.07
x1 = 0.4	–	–	–	3.195
x1 = 0.4037	8.24	5.75	–	3.08
x1 = 0.5015	7.84	5.55	4.04	3.02
x1 = 0.6107	7.35	5.27	3.86	2.91
x1 = 0.705	6.94	5	3.7	2.81
x1 = 0.7958	6.56	4.76	3.54	2.71
x1 = 0.8932	6.2	4.49	3.38	2.61

C[N+](C)(C)CCO.O=C1O[C@H]([C@@H](O)CO)C([O-])=C1O + O
viscosity [mPa·s], 100 kPa
Conditions	x1 = 0.001102	x1 = 0.001323	x1 = 0.001802	x1 = 0.002629	x1 = 0.00391	x1 = 0.005531
293.15 K	1.048	1.056	1.072	1.099	1.141	1.192
298.15 K	0.933	0.94	0.956	0.98	1.018	1.065
303.15 K	0.838	0.845	0.859	0.882	0.917	0.96
308.15 K	0.758	0.764	0.778	0.799	0.832	0.872
313.15 K	0.69	0.696	0.709	0.729	0.76	0.798

O=S(=O)([O-])NC1CCCCC1.[Rb+] + O
viscosity [mPa·s], 101 kPa
Conditions	x1 = 0.00091	x1 = 0.001356	x1 = 0.001833	x1 = 0.002303	x1 = 0.002722	x1 = 0.003185	x1 = 0.003618	x1 = 0.004055	x1 = 0.004552
293.15 K	1.024	1.036	1.048	1.061	1.072	1.084	1.096	1.108	1.123
298.15 K	0.9105	0.9203	0.9315	0.9419	0.9516	0.962	0.9723	0.9828	0.9953
303.15 K	0.8157	0.8243	0.8343	0.8431	0.8516	0.8608	0.8696	0.8789	0.8887
313.15 K	0.6675	0.6747	0.6824	0.6896	0.696	0.7034	0.7104	0.7177	0.7252
323.15 K	0.5585	0.564	0.5704	0.5762	0.5814	0.5874	0.5931	0.5992	0.6057
